# Measurements published in BindingDB's records for patent US20250313563 (The Broad Institute, 2025).
# Several values for one entry are separate records, joined by “and”; a condition that tells them apart may be missing. Equal values may be shown once.
# How the values were obtained:
# [1] = target: Glycogen synthase kinase-3 alpha (Homo sapiens, UniProt P49840); test: TR-FRET Assay
# Method in brief: (§1)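 Enzyme and test compound were first incubated together for 30 minutes in assay buffer. The kinase reaction followed and was stopped with EDTA. The pSer641 signal was read by time-resolved FRET.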
# [2] = target: Glycogen synthase kinase-3 beta (Homo sapiens, UniProt P49841); test: TR-FRET Assay
# Method in brief: as §1
# Sequence of Glycogen synthase kinase-3 alpha (P49840 whole entry): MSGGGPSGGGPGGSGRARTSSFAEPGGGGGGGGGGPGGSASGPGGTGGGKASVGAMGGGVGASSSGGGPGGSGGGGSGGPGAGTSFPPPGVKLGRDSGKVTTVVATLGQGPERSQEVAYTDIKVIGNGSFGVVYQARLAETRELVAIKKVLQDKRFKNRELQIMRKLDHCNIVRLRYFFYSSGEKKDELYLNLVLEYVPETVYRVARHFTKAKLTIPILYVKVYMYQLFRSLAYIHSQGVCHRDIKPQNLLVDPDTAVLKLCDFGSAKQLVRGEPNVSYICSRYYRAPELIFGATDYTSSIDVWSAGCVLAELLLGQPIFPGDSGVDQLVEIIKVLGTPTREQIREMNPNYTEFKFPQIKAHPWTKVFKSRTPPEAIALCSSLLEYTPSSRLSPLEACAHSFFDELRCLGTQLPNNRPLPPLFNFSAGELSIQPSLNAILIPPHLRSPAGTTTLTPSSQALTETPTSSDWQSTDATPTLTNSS
# Sequence of Glycogen synthase kinase-3 beta (P49841 whole entry): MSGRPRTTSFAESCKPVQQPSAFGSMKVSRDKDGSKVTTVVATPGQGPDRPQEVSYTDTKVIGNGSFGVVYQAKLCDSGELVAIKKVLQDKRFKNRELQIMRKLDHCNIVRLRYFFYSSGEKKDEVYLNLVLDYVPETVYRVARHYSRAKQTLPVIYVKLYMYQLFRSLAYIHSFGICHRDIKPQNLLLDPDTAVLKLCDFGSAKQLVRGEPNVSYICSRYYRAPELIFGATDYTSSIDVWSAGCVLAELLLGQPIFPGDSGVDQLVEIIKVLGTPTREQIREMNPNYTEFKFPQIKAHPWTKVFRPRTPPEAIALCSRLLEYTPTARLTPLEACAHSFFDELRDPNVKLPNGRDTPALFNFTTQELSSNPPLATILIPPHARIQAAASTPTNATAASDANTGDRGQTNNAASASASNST
IC50 [1],IC50 [2],SMILES
0.1 to 1 µM,0.1 to 1 µM,"C[C@@H]1C[C@@]2(CCN1S(=O)(=O)c1ccn(C)n1)C1=C(N=NC1)NC1=C2C(=O)CC(C)(C)C1 [US20250313563, Compound 917160]"
< 0.1 µM,< 0.1 µM,"CCC1(c2cccc(S(C)(=O)=O)c2)C2=C(CC(C)(C)NC2=O)NC2N=NC(C)=C21 (centres undefined) [US20250313563, Compound 947395B:]"
< 0.1 µM,< 0.1 µM,"CC1(C)CC(=O)C2=C(C1)NC1=C(CN=N1)[C@@]21CCN(S(=O)(=O)c2ccccc2F)C1 [US20250313563, Compound 945719]"
< 0.1 µM,< 0.1 µM,"CC1(C)CC2=C(C(=O)[C@@H]1F)[C@]1(CC[C@H](C(F)(F)F)CC1)C1=CN=NC1N2 (some centres undefined) [US20250313563, Compound 918283]"
1 to 5 µM,> 5 µM,"CC[C@]1(c2cccc(-c3cn(C)nc3C)c2)C2=C(CC(C)(C)NC2=O)NC2N=NC(Cl)=C21 (some centres undefined) [US20250313563, Compound 949329]"
< 0.1 µM,0.1 to 1 µM,"CC[C@@]1(c2cccc(C(F)(F)F)c2)C2=C(N=NC2)NC2=C1C(=O)N(C)C2(C)C [US20250313563, Compound 918252]"
0.1 to 1 µM,0.1 to 1 µM,"CC1(C)CC(=O)C2=C(C1)NC1=C(CN=N1)C21CCC1 [US20250313563, Compound 874509]"
< 0.1 µM,< 0.1 µM,"CCC1(c2ccccc2)C2=C(CC(C)(C)CC2=O)NC2N=NC(Br)=C21 (centres undefined) [US20250313563, Compound 789459]"
0.1 to 1 µM,0.1 to 1 µM,"CC[C@@]1(c2cccc(-c3ccncc3F)c2)C2=C(CC(C)(C)CC2=O)NC2N=NC(C)=C21 (some centres undefined) [US20250313563, Compound 913017]"
0.1 to 1 µM,1 to 5 µM,"CC[C@@]1(c2cccc(-c3cc(C)ncc3C)c2)C2=C(CC(C)(C)CC2=O)NC2N=NC(C)=C21 (some centres undefined) [US20250313563, Compound 913019]"
1 to 5 µM,> 5 µM,"CC[C@]1(c2cccc(-c3cc(C)nnc3C)c2)C2=C(CC(C)(C)NC2=O)NC2N=NC(C)=C21 (some centres undefined) [US20250313563, Compound 949332]"
0.1 to 1 µM,0.1 to 1 µM,"CCC1(c2cccc(Br)c2)C2=CN=NC2NC2=C1C(=O)CC(C(F)(F)F)C2 (centres undefined) [US20250313563, Compound 819565]"
> 5 µM,> 5 µM,"CC[C@@]1(c2cccc(C(F)(F)F)c2)C2=C(N=NC2)NC2=C1C(=O)NC2(C)C [US20250313563, Compound 913452]"
1 to 5 µM,> 5 µM,"CC[C@]1(c2cccc(C(F)(F)F)c2)C2=CN=NC2NC2=C1C(=O)N[C@@H](c1ccccc1)C2 (some centres undefined) [US20250313563, Compound 945362]"
0.1 to 1 µM,0.1 to 1 µM,"CC1(C)CC(=O)C2=C(C1)NC1=C(C(C3CC3)N=N1)C21CN(S(=O)(=O)CC2CC2)C1 (centres undefined) [US20250313563, Compound 109152]"
< 0.1 µM,0.1 to 1 µM,"CCC1(c2cccc(C(F)(F)F)c2)C2=CN=NC2NC2=C1C(=O)NCC2C (centres undefined) [US20250313563, Compound 919318]"
< 0.1 µM,< 0.1 µM,"CC[C@@]1(c2cccc(N(C)C(=O)c3cnn(C)c3)c2)C2=CN=NC2NC2=C1C(=O)CC(C)(C)C2 (some centres undefined) [US20250313563, Compound 913310]"
< 0.1 µM,< 0.1 µM,"CCC1(c2cccc(N3CCOCC3)c2)C2=C(CC(C)(C)CC2=O)NC2N=NC(C)=C21 (centres undefined) [US20250313563, Compound 874312]"
0.1 to 1 µM,0.1 to 1 µM,"COc1cccc(C2(C)C3=C(N=NC3)NC3=C2C(=O)CC(C)(C)C3)c1 (centres undefined) [US20250313563, Compound 792342]"
0.1 to 1 µM,1 to 5 µM,"CCC1(c2cccc(-c3ccnc(C(C)(C)C)c3)c2)C2=CN=NC2NC2=C1C(=O)CC(C)(C)C2 (centres undefined) [US20250313563, Compound 947490]"
< 0.1 µM and 0.1 to 1 µM,< 0.1 µM and 1 to 5 µM,"CC[C@]1(c2cccc(-c3ccncc3C(F)(F)F)c2)C2=C(N=NC2)NC2=C1C(=O)C(C)(C)C2 [US20250313563, Compound 952759]"
< 0.1 µM,0.1 to 1 µM,"CC[C@@]1(c2cccc(C(F)F)c2)C2=C(CC(C)(C)CC2=O)NC2N=NC(C(F)(F)F)=C21 (some centres undefined) [US20250313563, Compound 945708]"
> 5 µM,> 5 µM,"CC[C@]1(c2cccc(C3=CN(C)NC3C)c2)C2=C(N=NC2)NC2=C1C(=O)C(C)(C)C2 (some centres undefined) [US20250313563, Compound 951710]"
0.1 to 1 µM,1 to 5 µM,"CC1(C)CC(=O)C2=C(C1)NC1=C(CN=N1)[C@@]21CCOC2(CCCC2)C1 [US20250313563, Compound 907326]"
< 0.1 µM,0.1 to 1 µM,"CC[C@]1(c2cccc(C(F)(F)F)c2)C2=C(N=NC2)NC2=C1C(=O)N(Cc1ccccc1)[C@H]2C [US20250313563, Compound 930331]"
0.1 to 1 µM,0.1 to 1 µM,"CC1(C)CC(=O)C2=C(C1)NC1N=NC(CCC(F)(F)F)=C1C2(C)c1ccccc1 (centres undefined) [US20250313563, Compound 828845]"

IC50 [1],IC50 [2],SMILES
< 0.1 µM,0.1 to 1 µM,"CC1CCCC1C(=O)N1CC2(C1)CC1(CO2)C2=C(N=NC2)NC2=C1C(=O)CC(C)(C)C2 (centres undefined) [US20250313563, Compound 947274]"
1 to 5 µM,> 5 µM,"CC[C@]1(c2cccc(-c3cn(C)nc3C)c2)C2=CN=NC2NC2=C1C(=O)NC(C)(C)C2 (some centres undefined) [US20250313563, Compound 945480]"
< 0.1 µM,< 0.1 µM,"CCN(C(C)=O)c1cccc([C@@]2(CC)C3=CN=NC3NC3=C2C(=O)CC(C)(C)C3)c1 (some centres undefined) [US20250313563, Compound 909214]"
> 5 µM,> 5 µM,"CC[C@]1(c2cccc(-c3ccncc3F)c2)C2=C(CC(C)(C)NC2=O)NC2N=NC(F)=C21 (some centres undefined) [US20250313563, Compound 949643]"
0.1 to 1 µM,0.1 to 1 µM,"CC1(C)CC(=O)C2=C(C1)NC1=C(CN=N1)[C@@]21CC[C@H](C(F)(F)F)C1 [US20250313563, Compound 952434]"
> 5 µM,> 5 µM,"CC[C@]1(c2cccc(C(F)(F)F)c2)C2=CN=NC2NC2=C1C(=O)N(CC(F)(F)F)CC2 (some centres undefined) [US20250313563, Compound 912205]"
< 0.1 µM,< 0.1 µM,"CCC1(c2cccc(-c3cncn3C)c2)C2=CN=NC2NC2=C1C(=O)CC(C)(C)C2 (centres undefined) [US20250313563, Compound 943533]"
< 0.1 µM,< 0.1 µM and 0.1 to 1 µM,"CC1(C)CC(=O)C2=C(C1)NC1=C(CN=N1)C21CCN(S(=O)(=O)CC2CC2)CC1 [US20250313563, Compound 909207]"
1 to 5 µM,> 5 µM,"CC[C@@]1(c2cccc(C(F)(F)F)c2)C2=CN=NC2NC2=C1C(=O)N(c1ccc(F)cc1)CC2 (some centres undefined) [US20250313563, Compound 948225]"
< 0.1 µM,< 0.1 µM,"CC[C@@]1(c2cccc(-c3ccnc(N(C)C)c3)c2)C2=C(CC(C)(C)CC2=O)NC2N=NC(C)=C21 (some centres undefined) [US20250313563, Compound 913021]"
> 5 µM,> 5 µM,"CC[C@]1(c2cccc(N(C)c3cccc(C(C)(F)F)c3)c2)C2=CN=NC2NC2=C1C(=O)CC(C)(C)C2 (some centres undefined) [US20250313563, Compound 927345]"
< 0.1 µM,< 0.1 µM,"CC[C@]1(c2cccc(N(C)c3cncnc3)c2)C2=CN=NC2NC2=C1C(=O)CC(C)(C)C2 (some centres undefined) [US20250313563, Compound 915400]"
> 5 µM,> 5 µM,"CC[C@@]1(c2cccc(-c3ccnc(O)c3)c2)C2=CN=NC2NC2=C1C(=O)CC(C)(C)C2 (some centres undefined) [US20250313563, Compound 943993]"
< 0.1 µM,< 0.1 µM and 0.1 to 1 µM,"CC1(C)CC(=O)C2=C(C1)NC1=C(CN=N1)C21CCN(S(=O)(=O)C2CCOCC2)CC1 [US20250313563, Compound 913127]"
< 0.1 µM,< 0.1 µM,"CCn1ccc(S(=O)(=O)N2CCC3(CC2)C2=C(N=NC2)NC2=C3C(=O)CC(C)(C)C2)n1 [US20250313563, Compound 945671]"
1 to 5 µM,> 5 µM,"CC[C@]1(c2cccc(OC)c2)C2=C(CC(C)(C)NC2=O)NC2N=NC(C)=C21 (some centres undefined) [US20250313563, Compound 949328]"
< 0.1 µM,< 0.1 µM,"CC1(C)CC(=O)C2=C(C1)NC1=C(CN=N1)[C@@]21CCN(S(=O)(=O)c2cccc(F)c2)C1 [US20250313563, Compound 951862]"
< 0.1 µM,< 0.1 µM,"CC[C@@]1(c2cccc(-c3ccnn3C)c2)C2=CN=NC2NC2=C1C(=O)N[C@@]1(CCOC1)C2 (some centres undefined) [US20250313563, Compound 948015]"
0.1 to 1 µM,0.1 to 1 µM,"Cc1noc(C2CCC3(CC2)C2=C(N=NC2)NC2=C3C(=O)CC(C)(C)C2)n1 (centres undefined) [US20250313563, Compound 943895]"
< 0.1 µM,0.1 to 1 µM,"Cc1cccc(C(=O)N2CC3(C2)CC2(CO3)C3=C(N=NC3)NC3=C2C(=O)CC(C)(C)C3)c1C (centres undefined) [US20250313563, Compound 947284]"
< 0.1 µM,< 0.1 µM,"CCN(c1cccc(C2(CC)C3=CN=NC3NC3=C2C(=O)CC(C)(C)C3)c1)c1ncccn1 (centres undefined) [US20250313563, Compound 919840]"
< 0.1 µM,0.1 to 1 µM,"CCC1(c2cccc(C(F)(F)F)c2)C2=CN=NC2NC2=C1C(=O)N(c1ccccc1)CC2 (centres undefined) [US20250313563, Compound 917211]"
< 0.1 µM,0.1 to 1 µM,"CC1(C)CC2=C(C(=O)N1)C1(CCN(S(=O)(=O)c3cnn(C(C)(C)C)c3)CC1)C1=C(N=NC1)N2 [US20250313563, Compound 947835]"
< 0.1 µM and 0.1 to 1 µM,0.1 to 1 µM and 1 to 5 µM,"CC1(C)CC(=O)C2=C(C1)NC1=C(CN=N1)C21CCN(S(=O)(=O)c2ccccc2C(F)F)CC1 [US20250313563, Compound 945657]"
1 to 5 µM,0.1 to 1 µM,"CC1(C)CC(=O)C2=C(C1)NC1N=NC(CC(F)(F)F)=C1[C@@]21CCc2c(F)cccc21 (some centres undefined) [US20250313563, Compound 816837]"
1 to 5 µM,1 to 5 µM,"CC1(C)CC(=O)C2=C(C1)NC1=C(CN=N1)C21CN(C2CCCCC2)C1 [US20250313563, Compound 929446]"
